{"source": "patent US6733793B2", "about": "“Oral composition with insulin-like activities and methods of use” (MetaProteomics, LLC, priority 2002, dated 2004)", "origin": "cited, not measured here", "key": {"[1]": {"tested_on": "fruit fly"}, "[2]": {"tested_on": "bovine papilloma virus DNA-tranfected C3H/10T1/2 cells", "details": "in vitro, bovine papilloma virus DNA-transfected C3H/10T1/2 cells"}, "[3]": {"details": "rats, inhaled"}}, "data": [{"smiles": "O=S(=O)([O-])[O-].[O]=[V+2]", "note": "[Vanadyl sulfate]", "values": [{"measurement": "Chromosomal damage and mitotic recombination", "setting": "[1]", "result": "induce chromosomal damage and mitotic recombination"}, {"measurement": "Tumor promotion activity", "setting": "[2]", "result": "possess tumor promotion activity"}, {"measurement": "Pulmonary inflammation", "setting": "[3]", "result": "induce pulmonary inflammation"}]}]}
